# Test results published in patent publication US8080235B2, “Protein kinase A reporters useful in high throughput assays” (The Johns Hopkins University, priority 2005, dated 2011).
# Columns and labels:
# Format in all cases: cell-based
# [1] = system: PKA activity; assay: AKAR3 high-throughput screening of Johns Hopkins Clinical Compound Library; settings: 10 μM compound about 15 min, then 0.25 μM ISO
# Protocol: Live Cell High-Throughput Screening. […] After incubation for 24 hours, cells were washed once with HBSS and left in 190 μl of HBSS at 20-25° C. Fluorescence readings were taken as described above, with each cycle lasting 90 seconds. Following baseline acquisition, cells in each experimental well were treated with a compound from the Johns Hopkins Clinical Compound Library to a final concentration of 10 μM. Control cells were treated with 10 μL of 10% fetal bovine serum (FBS) in a solution of phosphate buffered saline (PBS) at pH 7.4, which is the solution used to dissolve library compounds.
# Ten final cycles were then performed.
# FRET responses were calculated as described above. […] Agonist hits were defined as compounds eliciting responses larger than six times the standard deviation above the baseline. Antagonist hits were defined as compounds which decreased the ISO stimulated response by 50% or by six times the standard deviation.
# In a primary screening, 160 compounds from the Johns Hopkins Clinical Compound Library were added to AKAR3-expressing HEK-293 cells in individual wells of 96-well plates to a final concentration of 10 μM after a base line reading. Time courses were recorded to monitor any fluorescence changes upon drug addition and to identify hits which activate PKA as potential agonists.
# Potential agonists were identified by selecting compounds which stimulated emission ratio changes larger than 6 times the standard deviation above the negative control (FIG. 3a ).
# [2] = system: PKA activity; assay: AKAR3 live cell 96-well plate reader assay (yellow/cyan emission ratio)
# Protocol: (§1) Live Cell Plate Reading. HEK-293 cells were transfected with AKAR3 or ICUE3 using calcium phosphate at 40% confluency and grown for 40 hours. Cells were then trypsinized and plated in a Costar 3603 96-well plate (Corning) at a density of 150,000 cells per well. After incubation for another 24 hours, cells were washed once with HBSS and left in 150 μl of HBSS at 20-25° C. Fluorescence reading was taken on a FLUOstar OPTIMA fluorescence microplate reader (BMG Labtechnologies Inc.) using a 420DF20 excitation filter and two emission filters (470DF40 for cyan and 535DF25 for yellow). A baseline was established in three cycles, each consisting of a full plate reading of yellow intensity, followed by a reading of cyan intensity.
# (§2) Each cycle lasted between 64 and 92 seconds. Cells were then treated with ISO, Fsk, H89, Propranolol (Pro; Sigma), or 3-isobutyl-1-methylxanthine (IBMX; Sigma) as indicated. Readings were taken in additional cycles. FRET change was calculated as the percent increase of emission ratios (yellow-to-cyan for AKAR and cyan-to-yellow for ICUE) over baseline for each well during a given cycle. Several parameters were calculated to assess the efficiency of the assay, including Z′ factor, coefficient of variation, and signal to noise (S/N) ratio (22).
# AKAR2 (FIG. 4). This reporter, AKAR3 (FIG. 1b), was tested in a 96-well plate format. […] As negative controls, addition of buffer of 2% DMSO generated minimal changes in emission ratios. This 96-well plate assay was sensitive and reproducible, with a signal to noise ratio of 30.3, a Z′ factor of 0.84, and a coefficient of variation (CV) of 1.8% for the Fsk-stimulated response.
# To provide specific readout of compartmentalized PKA activities, we introduced a C-terminal nuclear export signal (NES) to AKAR3 . In the plate reader assay using AKAR3 -NES (FIG. 1d), cytosolic PKA activity was recorded without contamination of nuclear activity, which has slower kinetics due to diffusional translocation of the catalytic subunit from cytosol to nucleus. […] Thus, sensor targeting provides increased temporal and spatial resolution and can be used to reveal how individual signaling microdomains, such as kinase-containing signaling complexes, are affected by drugs or other perturbations, adding another level of capacity to the non-image-based high-throughput assays of the invention.
# [3] = system: cAMP; assay: ICUE high-throughput screening of Johns Hopkins Clinical Compound Library (stable cells); settings: 10 μM compound, then 0.25 μM Iso plus 100 μM IBMX
# Protocol: Live Cell High-Throughput Screening. HEK-293 cells transiently expressing AKAR or stably expressing ICUE were trypsinized and plated in a Costar 3606 96-well plate (Corning) at a density of 150,000 cells per well. After incubation for 24 hours, cells were washed once with HBSS and left in 190 μl of HBSS at 20-25° C. Fluorescence readings were taken as described above, with each cycle lasting 90 seconds. Following baseline acquisition, cells in each experimental well were treated with a compound from the Johns Hopkins Clinical Compound Library to a final concentration of 10 μM. Control cells were treated with 10 μL of 10% fetal bovine serum (FBS) in a solution of phosphate buffered saline (PBS) at pH 7.4, which is the solution used to dissolve library compounds.
# Readings were taken for 10 cycles spanning a time of approximately 15 minutes, after which cells in experimental wells and positive controls were treated with 0.25 μM ISO (AKAR) or 0.25 μM Iso plus 100 μM IBMX (ICUE), while negative controls received 0.5% DMSO in HBSS. Ten final cycles were then performed.
# FRET responses were calculated as described above. Negative control (10% FBS, 0.5% DMSO) and positive control (10% FBS, 0.25 μM ISO) curves were generated. Agonist hits were defined as compounds eliciting responses larger than six times the standard deviation above the baseline. […]
# [4] = system: cAMP; assay: ICUE3 live cell high-throughput cAMP plate reader assay (cyan/yellow emission ratio)
# Protocol: as §1, §2
# To follow the activity of the signaling pathway and to assay related drug targets in parallel, we developed a live cell-based high-throughput assay for cAMP, a second messenger that is generated via activation of Gs-coupled GPCRs and exerts its effects by activating PKA and other effectors. Similar improvement approaches were first applied to create a reporter that more than doubled the response of previous “Indicator for cAMP Using Epac” (ICUE), which generates a decrease in FRET upon binding of cAMP (FIG. 5). […] Possible sources of the variation and reduced signal are transfection efficiency and expression variability.
smiles,measurement,setting,value
"CC(C)NCC(O)COc1cccc2ccccc12 (stereo not drawn) [Pro, propranolol]",antagonist screen: effect on ISO-stimulated AKAR response,[1],potently inhibited
same,effect on ISO-induced AKAR3 response,"[2]; 10 μM Pro, FIG. 2",inhibited
same,effect on Fsk-stimulated AKAR3 response,[2]; FIG. 2d,no effect
same,antagonist screen: effect on ISO-stimulated ICUE response,[3],potently inhibited
same,effect on Fsk-stimulated ICUE3 response,[4]; FIG. 2c,no effect
same,effect on ISO-induced ICUE3 response,"[4]; co-treatment, 10 μM Pro, FIG. 2a",inhibited
